“Also recorded” adds a separate entry of the source.
Key:
Format in all cases: in vivo, mouse
[1] = tested on: B16 melanoma tumors; assay: Histology, TUNEL and CD68 staining of irradiated B16 tumors; details: morpholino 48 hours before 10 Gy, 24 hours post-radiation
Description: FIG. 21. Increased fibrotic response, viable immune reaction, and macrophage infiltration is seen in tumors with suppressed CD47 expression. C57BL/6 mice were injected with 1×10^6 B16 mouse melanoma cells into their hind limbs. Treatment consisted of two groups where the hind limbs were treated with either 150 μl of PBS or 150 μl of CD47 morpholino (10 μM) 48 hours prior to radiation (10 Gy). The control group consisted of just tumor without radiation. 24 hours post-radiation the mice were sacrificed, and their hindlimbs were prepared in paraffin embedded tissue sections for analysis. The top panels represent hind limbs and tumors in each group stained by standard H&E protocol (FIG. 21A). […] Positive (apoptotic) cells are indicated by brown nuclear staining (FIG. 21B). […] Dark staining within the tumor indicates macrophage infiltration. Images were acquired using either a 4× or 10× objective.
Immunohistochemical Evaluation: Staining for the macrophage marker CD68 was done as previously described (Manso et al., Cancer Res 68:7090-7099, 2008) utilizing a rat anti-mouse CD68 antibody (AbD Serotec, Raleigh, N.C.). H&E staining of tissue hind limbs was prepared by American HistoLabs, Gaithersburg, Md.
Tissue Apoptosis: The ApopTag in situ detection kit (Chemicon, Millipore, Mass.) was used as described in Example 1. Additionally, animals were injected with 1×10^6 B16 melanoma cells and treated with either CD47 morpholino or sterile PBS as previously described. Mice were sacrificed 24 hours post irradiation (10 Gy), and hind limbs were embedded in paraffin blocks. Tissue sections incorporating the entire hind limb were examined for apoptosis employing 3′-hydroxy DNA strand breaks enzymatically labeled with digoxygenin nucleotide via TdT. Positive and negative control slides provided with the kit are used in each assay to ensure consistency.

[2] = tested on: B16F10 melanoma tumors; assay: Syngeneic B16F10 melanoma tumor growth after irradiation; details: B16F10 in C57BL/6 mice
Description: (§1) FIG. 19. CD47 suppression enhances re-growth delay in irradiated syngeneic B16 melanoma and squamous cell carcinoma tumors but increases radioresistance of B16 cells in vitro. C57BL/6 mice were injected with 1×10^6 B16 mouse melanoma cells into their right hindlimbs. Five days later, the mice were randomized into 4 groups (12 mice in each group) where they either received injections of CD47 morpholino (10 μM) in sterile PBS, PBS, or no injection. The two groups receiving injections were then subjected to radiation (10 Gy) to the effected hindlimb 48 hours later. The other two groups served as controls and consisted of tumor alone or tumor subjected to only the morpholino. Tumors were followed post-radiation for 30 days, measuring their volume every 6 days (FIG. 19A). Results are presented as the mean±SD of 12 mice in each treatment group and are representative of 3 independent studies. These same experimental treatment conditions were tested using another syngeneic tumor cell line (SCC VII) in C3H mice and followed for 15 days where similar results were found after injecting 1.5×10^5 cells (FIG. 19B). Results are presented as the mean±SD of 10 mice (C3II) in each treatment group and are representative of 3 independent studies. B16 mouse melanoma cells were plated on 96-well plates in standard growth medium. Cells were treated with peptide 7N3 or CD47 morpholino and received a radiation dose of 10 Gy (FIG. 19C; *p<0.05, #p<0.01). Cell (mitochondrial) viability was measured 48 hours post radiation using the MTT assay.
Tumor Establishment and Irradiation. C57 B16 mice were injected in the right hindlimb with 1×10^6 B16F10 melanoma cells, and tumors were allowed to establish for 1 week. After tumor incorporation, the hind limbs were treated with either the CD47 morpholino or sterile phosphate buffered saline (PBS). Forty-eight hours later, all mice were subjected to right hind limb irradiation (10 Gy). The mice were observed and tumor size determined twice a week by the same individual until lesion size necessitated animal euthanasia. […]

[3] = tested on: SCC VII; assay: SCC VII squamous cell carcinoma tumor growth after irradiation in C3H mice; details: IP morpholino 48 hours before irradiation
Description: as §1, with “These same experimental treatment conditions were tested using another syngeneic tumor cell line (SCC VII) in C3H mice and followed for 15 days where similar results were found after injecting 1.5×10^5 cells (FIG. 19B). Results are presented as the mean±SD of 10 mice (C3II) in each treatment group and are representative of 3 independent studies. B16 mouse melanoma cells were plated on 96-well plates in standard growth medium. Cells were treated with peptide 7N3 or CD47 morpholino and received a radiation dose of 10 Gy (FIG. 19C; *p<0.05, #p<0.01).” left out
FIG. 20. […] Tumor growth was assessed as above. […]
In other experiments, C3H mice were injected in the right hindlimb with either 1.5×10^5 SCC VII cells, and tumors were allowed to establish for 1 week. […] The mice were observed and tumor size determined two to three times a week by the same individual until lesion size necessitated animal euthanasia.

CGTCACAGGCAGGACCCACTGCCCA (all phosphorodiamidate morpholino (PMO)) [CD47 morpholino, CD47 targeting morpholino oligonucleotide]
H&E of irradiated tumors (fibrosis, necrosis) [1]: greater fibrosis and necrotic response
apoptotic cells associated with the tumor (TUNEL) [1]: minimal numbers of apoptotic cells
macrophage marker CD68 staining of tumors [1]: positive staining in the periphery
tumor ablation / re-growth delay with irradiation ([2]; morpholino 48 hours before 10 Gy): dramatically increased tumor ablation
tumor growth without irradiation ([2]; morpholino alone): only slightly delayed tumor growth
normal tissue injury in tumor-bearing irradiated limbs ([2]; morpholino then 10 Gy): minimal alopecia and no other morphologic or histologic evidence of tissue injury
tumor growth delay, intraperitoneal versus local administration [3]: as effective as local delivery; also recorded: equivalent delay in tumor growth
